Read-outs that look alike come from different tables or passages of the source.
Legend:
Myzus persicae [1] = test: Myzus persicae - spray test (Chinese cabbage leaf discs); assay type: in vivo; conditions: for pest or weed control at 500 g/ha: Myzus persicae, foliar, read-out: efficacy
Experimental: Myzus persicae—Spray Test
Solvent: 78 parts by weight of acetone • • 1.5 parts by weight of dimethylformamide
Emulsifier: alkylaryl polyglycol ether
To produce a suitable active compound preparation, 1 part by weight of active compound is dissolved using the stated parts by weight of solvent and made up with water containing an emulsifier concentration of 1000 ppm until the desired concentration is attained. To produce further test concentrations, the formulation is diluted with emulsifier-containing water.
Discs of Chinese cabbage leaves (Brassica pekinensis) infested by all stages of the green peach aphid (Myzus persicae) are sprayed with an active ingredient formulation of the desired concentration.
After 5-6 days, the efficacy in % is determined. 100% means that all the aphids have been killed; 0% means that no aphids have been killed.

Myzus persicae [2] = test: Myzus persicae - oral test; assay type: in vivo; conditions: for pest or weed control at 20 ppm: Myzus persicae, po, 120 h, read-out: efficacy
Experimental: Solvent: 100 parts by weight of acetone
To produce a suitable preparation of active compound, 1 part by weight of active compound is dissolved using the specified parts by weight of solvent and made up with water until the desired concentration is attained.
50 μl of the active compound preparation are transferred into microtitre plates and made up to a final volume of 200 μl with 150 μl of IPL41 insect medium (33%+15% sugar). Subsequently, the plates are sealed with parafilm, which a mixed population of green peach aphids (Myzus persicae) within a second microtitre plate is able to puncture and imbibe the solution through it.
After 5 days, the efficacy in % is determined. 100% means that all the aphids have been killed; 0% means that no aphids have been killed.

[3] = log P by HPLC on reversed-phase (C18) columns, OECD Guideline 117; assay type: physicochemical; conditions: for chromatographic logP: reversed-phase (C18) HPLC column
Experimental: The log P values were determined in accordance with OECD Guideline 117 (EC Directive 92/69/EEC) by HPLC (high-performance liquid chromatography) using reversed-phase (RP) columns (C18), by the following methods:
[a] The LC-MS determination in the acidic range was carried out at pH 2.7 with 0.1% aqueous formic acid and acetonitrile (contains 0.1% formic acid) as mobile phases; linear gradient from 10% acetonitrile to 95% acetonitrile.
[b] LC-MS determination in the neutral range was carried out at pH 7.8 with 0.001 molar aqueous ammonium hydrogencarbonate solution and acetonitrile as mobile phases; linear gradient from 10% acetonitrile to 95% acetonitrile.

[4] = application rate 500 g/ha, after 5-6 days
[5] = application rate 20 ppm, after 5 days
[6] = acidic range, pH 2.7, 0.1% aqueous formic acid/acetonitrile
[7] = neutral range, pH 7.8, aqueous ammonium hydrogencarbonate/acetonitrile
[8] = neutral range, pH 7.8, aqueous ammonium hydrogencarbonate/acetonitrile, read-out: logP[n]
[9] = acidic range, pH 2.7, 0.1% aqueous formic acid/acetonitrile, read-out: logP[a]

Structure (SMILES)	efficacy (Myzus persicae [1]; [4]) [%]	efficacy (Myzus persicae [2]; [5]) [%]	logP[a] [3, 6]	logP[n] [3, 7]	other results
CN(C(=O)c1cnc(COCc2ccccc2)n1C)c1cccnc1 [Example I-1-25]	90	100	1.10	1.63	–
CN(C(=O)c1cnc(C(O)c2ccccc2Cl)n1C)c1cccnc1 (racemic) [Example I-1-13]	100	100	0.85	–	–
CC(C)C(O)c1ncc(C(=O)N(C)c2cccnc2)n1C (racemic) [Example I-1-11]	90	100	0.18	–	–
C=Cc1ncc(C(=O)N(C)c2cccnc2)n1C [Example I-1-6, N,1-Dimethyl-N-(pyridin-3-yl)-2-vinyl-1H-imidazole-5-carboxamide]	–	–	–	–	pest or weed control at 500 g/ha (Myzus persicae [1]; [4]): 100%; pest or weed control at 20 ppm (Myzus persicae [2]; [5]): 100%
CN(C(=O)c1cnc(C(O)c2ccncc2)n1C)c1cccnc1 (racemic) [Example I-1-19]	90	100	–	0.54	–
CN(C(=O)c1cnc(Cc2ncccn2)n1C)c1cccnc1 [Example I-1-4]	100	100	–	0.68	–
CC(C)OCc1ncc(C(=O)N(C)c2cccnc2)n1C [Example I-1-65]	90	100	0.42	1.20	–
CN(C(=O)c1cnc(C(O)C(Cl)(Cl)Cl)n1C)c1cccnc1 (centres unmarked) [Example I-1-68]	–	–	1.02	1.21	–
CN(C(=O)c1cnc(C(C)(C)O)n1C)c1cccnc1 [Example I-1-10, 2-(2-Hydroxypropan-2-yl)-N,1-dimethyl-N-(pyridin-3-yl)-1H-imidazole-5-carboxamide]	–	–	–	–	pest or weed control at 500 g/ha (Myzus persicae [1]): 90%; pest or weed control at 20 ppm (Myzus persicae [2]): 70%; chromatographic logP [3, 8]: 0.57
CN(C(=O)c1cnc(C(OCC(F)(F)F)C(F)(F)F)n1C)c1cccnc1 (centres unmarked) [Example I-1-67, N,1-Dimethyl-N-(pyridin-3-yl)-2-[2,2,2-trifluoro-1-(2,2,2-trifluoroethoxy)ethyl]-1H-imidazole-5-carboxamide]	–	–	–	–	pest or weed control at 500 g/ha (Myzus persicae [1]; [4]): 70%; chromatographic logP [3, 9]: 1.72; chromatographic logP [3, 8]: 1.86
CN(C(=O)c1cnc(COc2cccc(Cl)c2)n1C)c1cccnc1 [Example I-1-24]	100	90	1.69	2.02	–
CN(C(=O)c1cnc(Cn2ncn(C3CC3)c2=O)n1C)c1cccnc1 [Example I-1-69]	70	–	0.22	0.59	–
CN(C(=O)c1cnc(COc2ccc(Cl)cc2)n1C)c1cccnc1 [Example I-1-62]	100	100	1.63	2.00	–
CC(O)c1ncc(C(=O)N(C)c2cccnc2)n1C (racemic) [Example I-1-9]	100	100	–	0.45	–
CN(C(=O)c1cnc(C#Cc2ccccc2)n1C)c1cccnc1 [IV-1-1, N,1-Dimethyl-2-(phenylethinyl)-N-(pyridin-3-yl)-1H-imidazole-5-carboxamide]	–	–	–	–	chromatographic logP [3, 9]: 1.86; chromatographic logP [3, 8]: 1.98
CC(C)CCC(O)c1ncc(C(=O)N(C)c2cccnc2)n1C (racemic) [Example I-1-61]	90	100	0.92	1.53	–
CN(C(=O)c1cnc(C(O)c2cccnc2)n1C)c1cccnc1 (racemic) [Example I-1-18]	90	100	–	0.60	–
CN(C(=O)c1cnc(C(O)c2ccc(Cl)c(Cl)c2)n1C)c1cccnc1 (racemic) [Example I-1-16]	100	100	1.42	1.87	–
CN(C(=O)c1cnc(CCl)n1C)c1cccnc1 [III-1-1, 2-(Chloromethyl)-N,1-dimethyl-N-(pyridin-3-yl)-1H-imidazole-5-carboxamide]	–	–	–	–	chromatographic logP [3, 8]: 0.89
CN(C(=O)c1cnc(Cn2ncn(C)c2=O)n1C)c1cccnc1 [Example I-1-70]	–	–	–	0.37	–

Structure (SMILES)	efficacy (Myzus persicae [1]; [4]) [%]	efficacy (Myzus persicae [2]; [5]) [%]	logP[a] [3, 6]	logP[n] [3, 7]	other results
CN(C(=O)c1cnc(C(O)c2ccccn2)n1C)c1cccnc1 (racemic) [Example I-1-17]	100	100	0.02	0.71	–
CN(C(=O)c1cnc(C(O)c2cccc(Cl)c2)n1C)c1cccnc1 (racemic) [Example I-1-14]	90	100	1.01	1.56	–
C=Cc1ncc(C(=O)N(CC)c2cccnc2)n1C [Example I-1-56]	90	90	0.18	1.10	–
CN(C(=O)c1cnc(COCC(F)(F)F)n1C)c1cccnc1 [Example I-1-63]	90	100	0.84	1.36	–
CN(C(=O)c1cnc(C(O)c2ncccn2)n1C)c1cccnc1 (racemic) [Example I-1-21]	100	100	–	0.40	–
CN(C(=O)c1cnc(Cc2ccccc2)n1C)c1cccnc1 [Example I-1-3, 2-Benzyl-N,1-dimethyl-N-(pyridin-3-yl)-1H-imidazole-5-carboxamide]	–	–	–	–	pest or weed control at 500 g/ha (Myzus persicae [1]; [4]): 100%; pest or weed control at 20 ppm (Myzus persicae [2]; [5]): 90%; chromatographic logP [3, 9]: 0.64; chromatographic logP [3, 8]: 1.48
CN(C(=O)c1cnc(CO)n1C)c1cccnc1 [Example I-1-7, 2-(Hydroxymethyl)-N,1-dimethyl-N-(pyridin-3-yl)-1H-imidazole-5-carboxamide]	–	–	–	–	pest or weed control at 500 g/ha (Myzus persicae [1]; [4]): 100%; pest or weed control at 20 ppm (Myzus persicae [2]; [5]): 100%; chromatographic logP [3, 8]: 0.28
CC(C)CS(=O)(=O)Cc1ncc(C(=O)N(C)c2ccc[n+]([O-])c2)n1C [Example I-1-55, 2-[(Isobutylsulphonyl)methyl]-N,1-dimethyl-N-(1-oxidopyridin-3-yl)-1H-imidazole-5-carboxamide]	–	–	–	–	chromatographic logP [3, 9]: 0.68; chromatographic logP [3, 8]: 0.77
COCc1ncc(C(=O)N(C)c2cccnc2)n1C [Example I-1-22, 2-(Methoxymethyl)-N,1-dimethyl-N-(pyridin-3-yl)-1H-imidazole-5-carboxamide]	–	–	–	–	pest or weed control at 500 g/ha (Myzus persicae [1]; [4]): 100%; pest or weed control at 20 ppm (Myzus persicae [2]; [5]): 100%; chromatographic logP [3, 8]: 0.63
CN(C(=O)c1cnc(C(O)c2cnccc2Cl)n1C)c1cccnc1 (racemic) [Example I-1-20]	90	100	0.59	1.07	–
C=C(C)c1ncc(C(=O)N(C)c2cccnc2)n1C [Example I-1-57]	90	–	0.10	1.05	–
CN(C(=O)c1cnc(CCc2ccccc2)n1C)c1cccnc1 [Example I-1-5, N,1-Dimethyl-2-(phenylethyl)-N-(pyridin-3-yl)-1H-imidazole-5-carboxamide]	–	–	–	–	pest or weed control at 500 g/ha (Myzus persicae [1]; [4]): 100%; pest or weed control at 20 ppm (Myzus persicae [2]; [5]): 100%; chromatographic logP [3, 9]: 0.66; chromatographic logP [3, 8]: 1.58
Cn1c(C(=O)N(c2cccnc2)C2CC2)cnc1CO [Example I-1-66]	–	70	–	0.61	–
CN(C(=O)c1cnc(C(O)c2ccc(Cl)cc2)n1C)c1cccnc1 (racemic) [Example I-1-15]	100	100	1.11	1.56	–
C/C=C/c1ncc(C(=O)N(C)c2cccnc2)n1C [Example I-1-58]	90	–	–	1.08	–
CN(C(=O)c1cnc(C(O)c2ccccc2)n1C)c1cccnc1 (centres unmarked) [Example I-1-12, 2-[Hydroxy(phenyl)methyl]-N,1-dimethyl-N-(pyridin-3-yl)-1H-imidazole-5-carboxamide]	–	–	–	–	pest or weed control at 500 g/ha (Myzus persicae [1]): 90%; pest or weed control at 20 ppm (Myzus persicae [2]): 100%; chromatographic logP [3, 9]: 0.52; chromatographic logP [3, 8]: 1.23
C/C=C\c1ncc(C(=O)N(C)c2cccnc2)n1C [Example I-1-59]	90	–	–	1.11	–
CC(C)CC(O)c1ncc(C(=O)N(C)c2cccnc2)n1C (racemic) [Example I-1-60]	90	100	0.60	1.26	–
CCN(C(=O)c1cnc(CO)n1C)c1cccnc1 [Example I-1-8]	–	90	−0.16	0.63	–
